Data on 21 compounds can be found in US20240132484A1, “BROAD SPECTRUM ANTIVIRAL COMPOUNDS TARGETING THE SKI COMPLEX” (priority 2020, published 2024).

This assay deals with Influenza virus. The assay can be described thus: organism not typed. Type of assay: cell-based, influenza A virus. Conditions: for Avg PFU/ml: average of first and second experiment; for Influenza virus titer, 10 μM / Influenza virus titer, 50 μM: upper part of table (FIG. 5 data); for Influenza virus titer, 10 μM / Influenza virus titer, 50 μM / Flu titer (pfu/ml): plaque assay.

In the case of `COc1ccc(CNC2Cc3ccccc3C2)c(OCC(O)CN2CCN(C)CC2)c1` (centres unmarked) [Compound 18-3], the “Influenza virus titer, 10 μM” value was 12000 PFU/virus/ml and the “Influenza virus titer, 50 μM” value is reported as 1100 PFU/virus/ml. Where the note is “10 μM screen”, the first experiment came out at 12000 PFU/ml, the second experiment is recorded as 1000 PFU/ml and the “Avg PFU/ml” value was 6500 PFU/ml. For the setting “50 μM screen”, the “first experiment PFU/ml” value was found to be 1100 PFU/ml, the “second experiment PFU/ml” value was found to be 1700 PFU/ml and the “Avg PFU/ml” value was found to be 1400 PFU/ml.

`COc1ccc(CNCCc2ccccc2)c(OCC(O)CN2CCN(C)CC2)c1` (centres unmarked) [Compound 18-6]: the “Influenza virus titer, 10 μM” value was 10000 PFU/virus/ml and the “Influenza virus titer, 50 μM” value is listed as 1300 PFU/virus/ml. Under “10 μM screen”, the first experiment is 10000 PFU/ml, the second experiment was determined as 500 PFU/ml and the “Avg PFU/ml” value is on record as 5250 PFU/ml. For the same compound, under “50 μM screen”, the “first experiment PFU/ml” value stood at 1300 PFU/ml, the “second experiment PFU/ml” value turned out to be 300 PFU/ml and the “Avg PFU/ml” value is recorded as 800 PFU/ml.

For `COc1ccc(CNCCc2cccnc2)c(OCC(O)CN2CCCCCCC2)c1` (centres unmarked) [Compound 18-9], the “Influenza virus titer, 10 μM” value worked out at 200000 PFU/virus/ml and the “Influenza virus titer, 50 μM” value worked out at 20000 PFU/virus/ml. In addition, for the setting “10 μM screen”, the first experiment was 200000 PFU/ml, the second experiment came out at 9000 PFU/ml and the “Avg PFU/ml” value stood at 104500 PFU/ml. For the setting “50 μM screen”, the “first experiment PFU/ml” value was found to be 20000 PFU/ml, the “second experiment PFU/ml” value is recorded as 2600 PFU/ml and the “Avg PFU/ml” value amounted to 11300 PFU/ml.

For the compound `COc1ccc(CNCCCSC)c(OCC(O)CN2CCCCCCC2)c1` (centres unmarked) [Compound 18-14], the “Influenza virus titer, 10 μM” value turned out to be 4400 PFU/virus/ml and the “Influenza virus titer, 50 μM” value was 80000 PFU/virus/ml. For the setting “10 μM screen”, the first experiment is 44000 PFU/ml, the second experiment is on record as 12000 PFU/ml and the “Avg PFU/ml” value was 28000 PFU/ml. Further, under “50 μM screen”, the “first experiment PFU/ml” value came to 80000 PFU/ml, the “second experiment PFU/ml” value came out at 1100 PFU/ml and the “Avg PFU/ml” value is 40550 PFU/ml.

On to `COc1ccc(CNCCc2ccccc2C)c(OCC(O)CN2CCN(C)CC2)c1` (centres unmarked) [UMB40], for which, where the note is “screening, A549 cells”, the “antiviral activity against IAV infection” value is reported as “showed a degree of antiviral activity”.

With `COc1ccc(CNCCc2ccccc2F)c(OCC(O)CN2CCN(C)CC2)c1` (centres unmarked) [Compound 18-lead, 1-[2-({[2-(2-fluorophenyl)ethyl]amino}methyl)-5-methoxyphenoxy]-3-(4-methyl-1-piperazinyl)-2-propanol], the “Influenza virus titer, 10 μM” value was determined as 2000 PFU/virus/ml and the “Influenza virus titer, 50 μM” value stood at 1400 PFU/virus/ml.

Regarding `CC#CC(=O)NCc1nc(-c2ccccc2NC(=O)CCOc2ccccc2)oc1C` [Compound 17295424, N-[(5-methyl-2-{2-[(3-phenoxypropanoyl)amino]phenyl}-1,3-oxazol-4-yl)methyl]-2-butynamide], the “Flu titer (pfu/ml)” value is recorded as 44000 pfu/ml (1 μM compound, A549 cells); 68000 pfu/ml (10 μM compound, A549 cells); 64000 pfu/ml (50 μM compound, A549 cells).

Consider `OCCN(Cc1nc(Cc2cccc(C(F)(F)F)c2)no1)CC12CC3CC(CC(C3)C1)C2` [Compound 61121342, 2-[(1-adamantylmethyl)({3-[3-(trifluoromethyl)benzyl]-1,2,4-oxadiazol-5-yl}methyl)amino]ethanol], for which the “Flu titer (pfu/ml)” value came out at 9000 pfu/ml (1 μM compound, A549 cells); 130000 pfu/ml (10 μM compound, A549 cells); 50000 pfu/ml (50 μM compound, A549 cells).

Consider `COc1ccc(CNC2CCCCC2)c(OCC(O)CN2CCN(C)CC2)c1` (centres unmarked) [Compound 18-10], for which the “Influenza virus titer, 10 μM” value came out at 40000 PFU/virus/ml and the “Influenza virus titer, 50 μM” value worked out at 16000 PFU/virus/ml. Under “10 μM screen”, the first experiment came out at 40000 PFU/ml, the second experiment is 2600 PFU/ml and the “Avg PFU/ml” value is listed as 21300 PFU/ml. Besides, for the setting “50 μM screen”, the “first experiment PFU/ml” value is on record as 16000 PFU/ml, the “second experiment PFU/ml” value is 1900 PFU/ml and the “Avg PFU/ml” value came to 8950 PFU/ml.

In the case of `COc1ccc(CNCCCn2ccnc2)c(OCC(O)CN2CCN(C)CC2)c1` (centres unmarked) [Compound 18-15], the “Influenza virus titer, 10 μM” value turned out to be 36000 PFU/virus/ml and the “Influenza virus titer, 50 μM” value is recorded as 30000 PFU/virus/ml. For the same compound, under “10 μM screen”, the first experiment was 16000 PFU/ml, the second experiment was 8000 PFU/ml and the “Avg PFU/ml” value is 12000 PFU/ml. For the same compound, for the setting “50 μM screen”, the “first experiment PFU/ml” value was found to be 70000 PFU/ml, the “second experiment PFU/ml” value is on record as 1000 PFU/ml and the “Avg PFU/ml” value is 35500 PFU/ml.

`COc1ccc(CNCC(F)(F)F)c(OCC(O)CN2CCN(C)CC2)c1` (centres unmarked) [Compound 18-12]: the “Influenza virus titer, 10 μM” value stood at 30000 PFU/virus/ml and the “Influenza virus titer, 50 μM” value worked out at 90000 PFU/virus/ml. Further, under “10 μM screen”, the first experiment is listed as 30000 PFU/ml, the second experiment is 28000 PFU/ml and the “Avg PFU/ml” value is 29000 PFU/ml. Further, where the note is “50 μM screen”, the “first experiment PFU/ml” value was determined as 90000 PFU/ml, the “second experiment PFU/ml” value amounted to 26000 PFU/ml and the “Avg PFU/ml” value is 58000 PFU/ml.

With `COCCO[C@H]1[C@H](NC(=O)C(C)C)c2ccccc2C12CCN(C(=O)Cn1nc(C)cc1C)CC2` (relative stereo) [Compound 27046321, N-[(2R*,3R*)-1′-[(3,5-dimethyl-1H-pyrazol-1-yl)acetyl]-2-(2-methoxyethoxy)-2,3-dihydrospiro[indene-1,4′-piperidin]-3-yl]-2-methylpropanamide], the “Flu titer (pfu/ml)” value reads like this: (1 μM compound, A549 cells) 110000 pfu/ml; (10 μM compound, A549 cells) 74000 pfu/ml; (50 μM compound, A549 cells) 87000 pfu/ml.

`COc1ccc(CNCC2CCCCC2)c(OCC(O)CN2CCN(C)CC2)c1` (centres unmarked) [Compound 18-5]: the “Influenza virus titer, 10 μM” value amounted to 60000 PFU/virus/ml and the “Influenza virus titer, 50 μM” value amounted to 2100 PFU/virus/ml. Moreover, under “10 μM screen”, the first experiment was determined as 60000 PFU/ml, the second experiment is listed as 500 PFU/ml and the “Avg PFU/ml” value was determined as 30250 PFU/ml. Also, under “50 μM screen”, the “first experiment PFU/ml” value was determined as 2100 PFU/ml, the “second experiment PFU/ml” value is recorded as 400 PFU/ml and the “Avg PFU/ml” value came out at 1250 PFU/ml.

As for `COc1ccccc1Cn1cc(C(=O)NCCC2=CCCCC2)c(=O)c(C(=O)N(CCO)C(C)C)c1` [Compound 55345532, N′-[2-(1-cyclohexen-1-yl)ethyl]-N-(2-hydroxyethyl)-N-isopropyl-1-(2-methoxybenzyl)-4-oxo-1,4-dihydro-3,5-pyridinedicarboxamide], the “Flu titer (pfu/ml)” value is on record as 55000 pfu/ml (1 μM compound, A549 cells); 70000 pfu/ml (10 μM compound, A549 cells); 34000 pfu/ml (50 μM compound, A549 cells).

Regarding `CCN1CCN(CC(O)COc2cccc(CN(C)Cc3ccccn3)c2)CC1` (centres unmarked) [Compound 10306628, 1-(4-ethyl-1-piperazinyl)-3-(3-{[methyl(2-pyridinylmethyl)amino]methyl}phenoxy)-2-propanol], the “Flu titer (pfu/ml)” value (1 μM compound, A549 cells) amounted to 70000 pfu/ml; the “Flu titer (pfu/ml)” value (10 μM compound, A549 cells) was 85000 pfu/ml; the “Flu titer (pfu/ml)” value (50 μM compound, A549 cells) stood at 42000 pfu/ml.

As for `COc1ccc(OC)c(Cc2nnc(CCC(=O)NC3CC(C)(C)CC(C)(C)C3)o2)c1` [Compound 35434810, 3-[5-(2,5-dimethoxybenzyl)-1,3,4-oxadiazol-2-yl]-N-(3,3,5,5-tetramethylcyclohexyl)propanamide], the “Flu titer (pfu/ml)” value (1 μM compound, A549 cells) came out at 80000 pfu/ml; the “Flu titer (pfu/ml)” value (10 μM compound, A549 cells) was found to be 80000 pfu/ml; the “Flu titer (pfu/ml)” value (50 μM compound, A549 cells) is 130000 pfu/ml.

As for `Cc1ccc(-c2cc3c(c(OCC4CCCCO4)c2)OCCN(C(=O)C2CC2)C3)s1` (centres unmarked) [Compound 43261887, 4-(cyclopropylcarbonyl)-7-(5-methyl-2-thienyl)-9-(tetrahydro-2H-pyran-2-ylmethoxy)-2,3,4,5-tetrahydro-1,4-benzoxazepine], the “Flu titer (pfu/ml)” value reads like this: (1 μM compound, A549 cells) 60000 pfu/ml; (10 μM compound, A549 cells) 170000 pfu/ml; (50 μM compound, A549 cells) 30000 pfu/ml.

Take `CN(CC(O)COc1ccccc1CNCCN1CCCC1)C1CCCCC1` (centres unmarked) [Compound 74597070, 1-[cyclohexyl(methyl)amino]-3-[2-({[2-(1-pyrrolidinyl)ethyl]amino}methyl)phenoxy]-2-propanol]: the “Flu titer (pfu/ml)” value reads like this: (1 μM compound, A549 cells) 70000 pfu/ml; (10 μM compound, A549 cells) 55000 pfu/ml; (50 μM compound, A549 cells) 24000 pfu/ml.

On to `COc1ccc(CNC2CCCCCCC2)c(OCC(O)CN2CCN(C)CC2)c1` (centres unmarked) [Compound 18-8], for which the “Influenza virus titer, 10 μM” value was 3000 PFU/virus/ml and the “Influenza virus titer, 50 μM” value amounted to 38000 PFU/virus/ml. Besides, under “10 μM screen”, the first experiment was determined as 3000 PFU/ml, the second experiment is recorded as 700 PFU/ml and the “Avg PFU/ml” value amounted to 1850 PFU/ml. Moreover, for the setting “50 μM screen”, the “first experiment PFU/ml” value was 3800 PFU/ml, the “second experiment PFU/ml” value is on record as 200 PFU/ml and the “Avg PFU/ml” value stood at 2000 PFU/ml.

As to `CCCCC(=O)Nc1cccc(NC(=O)COc2ccc(C3CCCCC3)cc2)c1` [Compound 7973169, N-(3-{[2-(4-cyclohexylphenoxy)acetyl]amino}phenyl)pentanamide], the “Flu titer (pfu/ml)” value is reported as 101000 pfu/ml (1 μM compound, A549 cells); 66000 pfu/ml (10 μM compound, A549 cells); 110000 pfu/ml (50 μM compound, A549 cells).

On to `COc1ccc(CNC2CCCC2)c(OCC(O)CN2CCN(C)CC2)c1` (centres unmarked) [Compound 18-1], for which the “Influenza virus titer, 10 μM” value was 60000 PFU/virus/ml and the “Influenza virus titer, 50 μM” value was found to be 2200 PFU/virus/ml. Moreover, under “10 μM screen”, the first experiment was 60000 PFU/ml, the second experiment is recorded as 19000 PFU/ml and the “Avg PFU/ml” value is given as 39500 PFU/ml. Also, under “50 μM screen”, the “first experiment PFU/ml” value is on record as 2200 PFU/ml, the “second experiment PFU/ml” value is 1400 PFU/ml and the “Avg PFU/ml” value is on record as 1800 PFU/ml.
